For data set [1], the target named is Dual specificity mitogen-activated protein kinase kinase; MEK1/2 (Homo sapiens) (UniProt P36507+Q02750). Description: Inhibition of ERK phosphorylation in human HT-29 cells after 2 hrs by Western blot analysis. The data set is classed as cell-based.
The target in data set [2] is Mitogen-activated protein kinase; ERK1/ERK2 (Homo sapiens) (UniProt P27361+P28482). Description: Inhibition of ERK1/ERK2 in human HT-29 cells assessed as reduction in p90RSK phosphorylation after 2 hrs by Western blot analysis. The class given is cell-based. On the technique in general: Immunoblotting shows a protein as a band on a membrane.
Data set [3] in a line: Apparent permeability in human Caco2 cells assessed as Fabs after 95 mins by LC-MS/MS analysis. The data set is classed as ADME, cell-based. The note with it: caco-2, 95 min. (In general: Caco-2 cells form a polarised layer with tight junctions and transporters.)
Data set [4] has as its target Mitogen-activated protein kinase 1 (Homo sapiens, UniProt P28482). Description: Inhibition of human recombinant GST-tagged ERK2 expressed in Escherichia coli using ser/thr 3 Peptide as substrate preincubated for 1 hr measured after 1 hr by Z-LYTE assay.
The nature of data set [5]: AUC (0 to 24 hrs) in rat at 10 mg/kg, po. The class given is ADME, organism-based. The arrangement: time < 24 hr, dose 10 mg/kg, route oral. The note with it: in vivo.
In another data set the test system is HT-29. Kind of data set: Antiproliferative activity against human HT-29 cells harboring B-RAF V600E mutant after 72 hrs by SRB assay. The class given is functional, cell-based. The note with it: HT-29, 72 h. A general note: In SRB staining, fixed cells bind dye roughly in proportion to their protein.

In general, IC50 refers to the concentration that inhibits the measured activity by half. The AUC(0-t) is the area under the concentration-time curve up to a stated or last time point. A lower AUC(0-t) goes with low exposure.

Calls of active or inactive are those of the source. No cut-off for these calls is given here.

Chain of Mitogen-activated protein kinase; ERK1/ERK2 (Homo sapiens) (P27361 whole entry, looked up): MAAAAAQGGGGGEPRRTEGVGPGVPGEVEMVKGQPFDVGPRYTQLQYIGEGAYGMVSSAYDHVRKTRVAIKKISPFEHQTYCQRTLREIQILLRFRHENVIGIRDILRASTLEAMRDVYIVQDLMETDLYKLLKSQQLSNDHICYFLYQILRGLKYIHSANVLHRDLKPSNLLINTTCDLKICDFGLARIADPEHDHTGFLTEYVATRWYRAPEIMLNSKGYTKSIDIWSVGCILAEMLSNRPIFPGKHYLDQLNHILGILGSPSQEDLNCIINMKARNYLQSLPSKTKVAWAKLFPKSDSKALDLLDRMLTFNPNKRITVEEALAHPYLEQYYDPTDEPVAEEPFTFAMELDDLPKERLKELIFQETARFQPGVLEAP
Chain of Mitogen-activated protein kinase; ERK1/ERK2 (Homo sapiens) (P28482 whole entry, looked up): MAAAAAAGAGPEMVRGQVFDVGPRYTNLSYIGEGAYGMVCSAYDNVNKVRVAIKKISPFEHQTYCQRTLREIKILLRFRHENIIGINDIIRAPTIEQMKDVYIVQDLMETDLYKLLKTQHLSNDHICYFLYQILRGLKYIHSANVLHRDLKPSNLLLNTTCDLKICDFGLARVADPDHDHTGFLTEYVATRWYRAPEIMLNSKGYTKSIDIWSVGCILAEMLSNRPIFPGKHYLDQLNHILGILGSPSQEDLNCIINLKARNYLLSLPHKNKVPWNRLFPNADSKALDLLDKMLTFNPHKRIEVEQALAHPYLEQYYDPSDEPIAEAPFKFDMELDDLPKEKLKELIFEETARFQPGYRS
Chain of Mitogen-activated protein kinase 1 (P28482 whole entry): as the sequence (P28482 whole entry, looked up) above
Chain of Dual specificity mitogen-activated protein kinase kinase; MEK1/2 (Homo sapiens) (P36507 whole entry, looked up): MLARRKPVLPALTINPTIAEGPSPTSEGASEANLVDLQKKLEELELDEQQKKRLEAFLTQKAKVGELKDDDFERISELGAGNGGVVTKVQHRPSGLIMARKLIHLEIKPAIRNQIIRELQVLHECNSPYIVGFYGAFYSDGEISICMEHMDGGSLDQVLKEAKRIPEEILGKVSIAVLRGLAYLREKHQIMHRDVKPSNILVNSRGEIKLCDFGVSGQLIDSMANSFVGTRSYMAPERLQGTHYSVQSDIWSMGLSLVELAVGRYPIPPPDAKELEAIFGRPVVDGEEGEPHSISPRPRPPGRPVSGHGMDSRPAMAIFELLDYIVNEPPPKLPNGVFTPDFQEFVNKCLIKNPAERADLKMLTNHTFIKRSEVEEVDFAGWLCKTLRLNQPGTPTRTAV
Chain of Dual specificity mitogen-activated protein kinase kinase; MEK1/2 (Homo sapiens) (Q02750 whole entry, looked up): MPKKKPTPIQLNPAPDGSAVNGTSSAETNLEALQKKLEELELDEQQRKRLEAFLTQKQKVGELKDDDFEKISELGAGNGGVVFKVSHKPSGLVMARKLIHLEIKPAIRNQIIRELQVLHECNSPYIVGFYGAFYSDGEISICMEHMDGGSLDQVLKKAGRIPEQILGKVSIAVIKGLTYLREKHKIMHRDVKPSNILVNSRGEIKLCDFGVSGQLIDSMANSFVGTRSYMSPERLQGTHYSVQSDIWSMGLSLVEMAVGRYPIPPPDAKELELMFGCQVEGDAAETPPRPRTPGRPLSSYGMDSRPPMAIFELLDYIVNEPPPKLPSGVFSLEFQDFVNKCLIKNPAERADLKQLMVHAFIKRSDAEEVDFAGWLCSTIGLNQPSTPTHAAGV

Turning to `C[C@@H](NC(=O)c1ccc2[nH]nc(-c3ccncc3)c2c1)c1cccc(Cl)c1`, the inhibition entry in data set [1] is “inactive”. In addition, in data set [2], the inhibition entry was “Dose-dependent effect”. Moreover, the Fabs in data set [3] was found to be 100%. Also, the IC50 in data set [4] worked out at 25.8 nM; in the data set with HT-29, 900 nM. For the same compound, in data set [5], the area under the curve AUC(0-t) at 24 h worked out at 56 ng·h/mL.
